Assay results from the NIST ThermoML archive (doi:10.1021/acs.jced.9b00185).

Columns and labels:
[1] = xn = mol fraction of the nth substance listed; conditions: 298.15 K, 98.8 kPa, Liquid, Vibrating tube method
[2] = excess molar enthalpy (molar enthalpy of mixing); xn = mol fraction of the nth substance listed; conditions: 298.15 K, 98.8 kPa, Liquid, Calvet calorimetry

CCCCCCCCCC(=O)OC [methyl decanoate] + CCCCCCCCCCCCCCCC
Conditions	excess molar enthalpy, [2] [kcal/mol]	mass density, [1] [kg/m3]
x1 = 0.0499	–	773.1
x1 = 0.0636	0.0471	–
x1 = 0.0998	–	776.6
x1 = 0.1131	0.081	–
x1 = 0.1501	–	780.26
x1 = 0.1619	0.107	–
x1 = 0.2	–	783.98
x1 = 0.201	0.129	–
x1 = 0.2497	–	787.88
x1 = 0.2575	0.153	–
x1 = 0.3006	–	791.99
x1 = 0.3056	0.17	–
x1 = 0.3497	–	796.11
x1 = 0.3584	0.184	–
x1 = 0.398	0.195	–
x1 = 0.4001	–	800.47
x1 = 0.4494	0.198	–
x1 = 0.45	–	804.97
x1 = 0.4955	0.198	–
x1 = 0.4997	–	809.64
x1 = 0.5479	0.195	–
x1 = 0.5502	–	814.55
x1 = 0.5983	0.188	–
x1 = 0.5995	–	819.57
x1 = 0.6494	0.177	–
x1 = 0.6501	–	824.85
x1 = 0.6996	–	830.28
x1 = 0.7034	0.163	–
x1 = 0.7497	–	835.95
x1 = 0.7512	0.145	–
x1 = 0.7997	–	841.91
x1 = 0.8015	0.126	–
x1 = 0.8489	–	847.93
x1 = 0.8493	0.102	–
x1 = 0.8992	–	854.43
x1 = 0.8995	0.0707	–
x1 = 0.9494	–	861.11
x1 = 0.9495	0.0366	–
x1 = 1	0	868.02

CCCCCCCCCC(=O)OC [methyl decanoate] + CCCCCCCCCC
[2]
Conditions	excess molar enthalpy [kcal/mol]
x1 = 0.0469	0.033
x1 = 0.0985	0.0662
x1 = 0.1523	0.0915
x1 = 0.2018	0.115
x1 = 0.2537	0.133
x1 = 0.3062	0.15
x1 = 0.3563	0.156
x1 = 0.4008	0.16
x1 = 0.4543	0.162
x1 = 0.5058	0.159
x1 = 0.5498	0.156
x1 = 0.6017	0.146
x1 = 0.6524	0.133
x1 = 0.7078	0.114
x1 = 0.7597	0.0994
x1 = 0.8086	0.0813
x1 = 0.8592	0.0607
x1 = 0.9058	0.0406
x1 = 0.9566	0.0151
x1 = 1	0

CCCCCCCCCC(=O)OC [methyl decanoate] + CCCCCCCCCCCC
Conditions	excess molar enthalpy, [2] [kcal/mol]	mass density, [1] [kg/m3]
x1 = 0.05	–	750.68
x1 = 0.0512	0.0394	–
x1 = 0.1	–	756.24
x1 = 0.1129	0.076	–
x1 = 0.1503	–	761.93
x1 = 0.1513	0.101	–
x1 = 0.1998	–	767.59
x1 = 0.2021	0.119	–
x1 = 0.25	–	773.38
x1 = 0.2513	0.141	–
x1 = 0.299	0.152	–
x1 = 0.3001	–	779.28
x1 = 0.3506	–	785.27
x1 = 0.3572	0.163	–
x1 = 0.3996	–	791.16
x1 = 0.4051	0.169	–
x1 = 0.4473	0.172	–
x1 = 0.4497	–	797.22
x1 = 0.5002	–	803.37
x1 = 0.5033	0.172	–
x1 = 0.55	–	809.54
x1 = 0.5502	0.169	–
x1 = 0.5952	0.163	–
x1 = 0.5998	–	815.74
x1 = 0.6499	–	822.04
x1 = 0.652	0.15	–
x1 = 0.6994	–	828.35
x1 = 0.7089	0.132	–
x1 = 0.7495	–	834.79
x1 = 0.7524	0.117	–
x1 = 0.7996	–	841.3
x1 = 0.8098	0.0954	–
x1 = 0.8493	–	847.78
x1 = 0.8525	0.0731	–
x1 = 0.8997	–	854.45
x1 = 0.9019	0.0485	–
x1 = 0.9496	–	861.18
x1 = 0.9586	0.0196	–
x1 = 1	0	868.02

CCCCCCCCCCCCCCCC [hexadecane] + CCCCCCCCCC(=O)OC
x2 = 0
Conditions	excess molar enthalpy [kcal/mol]	mass density [kg/m3]
[1]	–	769.8
[2]	0	–
